Assay results taken from patent US11104674B2 (Hoffmann-La Roche Inc., priority 2016, dated 2021).

Tested on: HBsAg
Assay: HBsAg assay (chemiluminescence immunoassay of secreted HBsAg)
Type: cell-based, HBV
Conditions: Hepatitis B virus, HepG2.2.15, HBsAg secretion, HepG2.2.15 cells, CLIA of culture supernatant
Outline: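 HepG2.2.15 cells, in duplicate, treated with three-fold serial compound dilutions (1% DMSO final); secreted HBsAg in supernatant quantified by chemiluminescence immunoassay; IC50 is the concentration reducing HBsAg secretion by 50% versus the DMSO control.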

In order of falling IC50:
1. CC1c2cnc(-c3ncccn3)nc2CCN1c1cc(F)cc(NC2CNC2)n1 (centres unmarked) [Example 120, N-(azetidin-3-yl)-4-fluoro-6-(5-methyl-2-pyrimidin-2-yl-7,8-dihydro-5H-pyrido[4,3-d]pyrimidin-6-yl)pyridin-2-amine]  33300 nM
2. CC1c2cnc(-c3ncccn3)nc2CCN1c1cc(F)cc(N2CCN(CCC(N)=O)CC2)n1 (centres unmarked) [Example 103, 3-[4-[4-fluoro-6-(5-methyl-2-pyrimidin-2-yl-7,8-dihydro-5H-pyrido[4,3-d]pyrimidin-6-yl)-2-pyridyl]piperazin-1-yl]propanamide]  1350 nM
3. CC1c2cnc(-c3ncccn3)nc2CCN1c1cc(NC2CNC2)cc(F)n1 (centres unmarked) [Example 121, N-(azetidin-3-yl)-2-fluoro-6-(5-methyl-2-pyrimidin-2-yl-7,8-dihydro-5H-pyrido[4,3-d]pyrimidin-6-yl)pyridin-4-amine]  496 nM
4. CC(=O)N1CCN(c2cc(F)nc(N3CCc4nc(-c5ncccn5)ncc4C3C)c2)C(=O)C1 (centres unmarked) [Example 127, 4-Acetyl-1-[2-fluoro-6-(5-methyl-2-pyrimidin-2-yl-7,8-dihydro-5H-pyrido[4,3-d]pyrimidin-6-yl)-4-pyridyl]piperazin-2-one]  494 nM
5. CC1c2cnc(-c3ncccn3)nc2CCN1c1cc(N2CCN(S(C)(=O)=O)CC2=O)cc(F)n1 (centres unmarked) [Example 128, 1-[2-Fluoro-6-(5-methyl-2-pyrimidin-2-yl-7,8-dihydro-5H-pyrido[4,3-d]pyrimidin-6-yl)-4-pyridyl]-4-methylsulfonyl-piperazin-2-one]  417 nM
6. CC1c2cnc(-c3ncccn3)nc2CCN1c1cc(N2CCN(CCC(N)=O)CC2)cc(F)n1 (centres unmarked) [Example 104, 3-[4-[2-fluoro-6-(5-methyl-2-pyrimidin-2-yl-7,8-dihydro-5H-pyrido[4,3-d]pyrimidin-6-yl)-4-pyridyl]piperazin-1-yl]propanamide]  220 nM
7. CC1C(=O)NCCN1c1cc(F)nc(N2CCc3nc(-c4ncccn4)ncc3C2C)c1 (centres unmarked) [Example 117, 4-[2-fluoro-6-(5-methyl-2-pyrimidin-2-yl-7,8-dihydro-5H-pyrido[4,3-d]pyrimidin-6-yl)-4-pyridyl]-3-methyl-piperazin-2-one]  106 nM
8. CC1C(=O)NCCN1c1cc(F)cc(N2CCc3nc(-c4ncccn4)ncc3C2C)n1 (centres unmarked) [Example 116, 4-[4-fluoro-6-(5-methyl-2-pyrimidin-2-yl-7,8-dihydro-5H-pyrido[4,3-d]pyrimidin-6-yl)-2-pyridyl]-3-methyl-piperazin-2-one]  103 nM
9. CC1c2cnc(-c3ncccn3)nc2CCN1c1cc(F)cc(N2CC(NS(C)(=O)=O)C2)n1 (centres unmarked) [Example 118, N-[1-[4-fluoro-6-(5-methyl-2-pyrimidin-2-yl-7,8-dihydro-5H-pyrido[4,3-d]pyrimidin-6-yl)-2-pyridyl]azetidin-3-yl]methanesulfonamide]  94 nM
10. CC1c2cnc(-c3ncccn3)nc2CCN1c1cc(N2CC(NS(C)(=O)=O)C2)cc(F)n1 (centres unmarked) [Example 119, N-[1-[2-fluoro-6-(5-methyl-2-pyrimidin-2-yl-7,8-dihydro-5H-pyrido[4,3-d]pyrimidin-6-yl)-4-pyridyl]azetidin-3-yl]methanesulfonamide]  57 nM
11. CC(=O)NC1CN(c2cc(F)cc(N3CCc4nc(-c5ncccn5)ncc4C3C)n2)C1 (centres unmarked) [Example 131, N-[1-[4-fluoro-6-(5-methyl-2-pyrimidin-2-yl-7,8-dihydro-5H-pyrido[4,3-d]pyrimidin-6-yl)-2-pyridyl]azetidin-3-yl]acetamide]  43 nM
12. CC1c2cnc(-c3ncccn3)nc2CCN1c1cc(F)cc(N2CC(F)(F)C2)n1 (centres unmarked) [Example 125, 6-[6-(3,3-difluoroazetidin-1-yl)-4-fluoro-2-pyridyl]-5-methyl-2-pyrimidin-2-yl-7,8-dihydro-5H-pyrido[4,3-d]pyrimidine]  38 nM
13. CC1c2cnc(-c3ncccn3)nc2CCN1c1cc(F)cc(N2CC3(COC3)C2)n1 (centres unmarked) [Example 129, 6-[4-fluoro-6-(5-methyl-2-pyrimidin-2-yl-7,8-dihydro-5H-pyrido[4,3-d]pyrimidin-6-yl)-2-pyridyl]-2-oxa-6-azaspiro[3.3]heptane]  36 nM
14. CC1c2cnc(-c3ncccn3)nc2CCN1c1cc(N2CC(O)C2)cc(F)n1 (centres unmarked) [Example 124, 1-[2-Fluoro-6-(5-methyl-2-pyrimidin-2-yl-7,8-dihydro-5H-pyrido[4,3-d]pyrimidin-6-yl)-4-pyridyl]azetidin-3-ol]  33 nM
15. CC1c2cnc(-c3ncccn3)nc2CCN1c1cc(N2CCN(CC(N)=O)CC2)cc(F)n1 (centres unmarked) [Example 102, 2-[4-[2-fluoro-6-(5-methyl-2-pyrimidin-2-yl-7,8-dihydro-5H-pyrido[4,3-d]pyrimidin-6-yl)-4-pyridyl]piperazin-1-yl]acetamide]  29 nM
16. CC1c2cnc(-c3ncccn3)nc2CCN1c1cc(F)cc(N2CC(F)C2)n1 (centres unmarked) [Example 122, 6-[4-fluoro-6-(3-fluoroazetidin-1-yl)-2-pyridyl]-5-methyl-2-pyrimidin-2-yl-7,8-dihydro-5H-pyrido[4,3-d]pyrimidine]  28 nM
17. COC1CN(c2cc(F)cc(N3CCc4nc(-c5ncccn5)ncc4C3C)n2)C1 (centres unmarked) [Example 111, 6-[4-fluoro-6-(3-methoxyazetidin-1-yl)-2-pyridyl]-5-methyl-2-pyrimidin-2-yl-7,8-dihydro-5H-pyrido[4,3-d]pyrimidine]  26 nM
18. CC(=O)NC1CN(c2cc(F)nc(N3CCc4nc(-c5ncccn5)ncc4C3C)c2)C1 (centres unmarked) [Example 132, N-[1-[2-fluoro-6-(5-methyl-2-pyrimidin-2-yl-7,8-dihydro-5H-pyrido[4,3-d]pyrimidin-6-yl)-4-pyridyl]azetidin-3-yl]acetamide]  24 nM
19. CC1c2cnc(-c3ncccn3)nc2CCN1c1cc(F)cc(N2CCN(S(C)(=O)=O)C(C)C2)n1 (centres unmarked) [Example 105, 6-[4-fluoro-6-(3-methyl-4-methylsulfonyl-piperazin-1-yl)-2-pyridyl]-5-methyl-2-pyrimidin-2-yl-7,8-dihydro-5H-pyrido[4,3-d]pyrimidine]  23 nM
20. CC1c2cnc(-c3ncccn3)nc2CCN1c1cc(F)cc(N2CC(CO)C2)n1 (centres unmarked) [Example 136, [1-[4-fluoro-6-(5-methyl-2-pyrimidin-2-yl-7,8-dihydro-5H-pyrido[4,3-d]pyrimidin-6-yl)-2-pyridyl]azetidin-3-yl]methanol]  23 nM
21. CC1c2cnc(-c3ncccn3)nc2CCN1c1cc(F)cc(N2CCC2)n1 (centres unmarked) [Example 109, 6-[6-(azetidin-1-yl)-4-fluoro-2-pyridyl]-5-methyl-2-pyrimidin-2-yl-7,8-dihydro-5H-pyrido[4,3-d]pyrimidine]  21 nM
22. CC1CN(c2cc(F)nc(N3CCc4nc(-c5ncccn5)ncc4C3C)c2)CC(=O)N1 (centres unmarked) [Example 134, 4-[2-fluoro-6-(5-methyl-2-pyrimidin-2-yl-7,8-dihydro-5H-pyrido[4,3-d]pyrimidin-6-yl)-4-pyridyl]-6-methyl-piperazin-2-one]  15 nM
23. COC1CCN(c2cc(N3CCc4nc(-c5ncccn5)ncc4C3C)cc(F)n2)C1 (centres unmarked) [Example 108, 6-[2-Fluoro-6-(3-methoxypyrrolidin-1-yl)-4-pyridyl]-5-methyl-2-pyrimidin-2-yl-7,8-dihydro-5H-pyrido[4,3-d]pyrimidine]  13 nM
24. CC1c2cnc(-c3ncccn3)nc2CCN1c1cc(N2CC(F)(F)C2)cc(F)n1 (centres unmarked) [Example 126, 6-[4-(3,3-difluoroazetidin-1-yl)-6-fluoro-2-pyridyl]-5-methyl-2-pyrimidin-2-yl-7,8-dihydro-5H-pyrido[4,3-d]pyrimidine]  12 nM
25. CC1c2cnc(-c3ncccn3)nc2CCN1c1cc(N2CC3(COC3)C2)cc(F)n1 (centres unmarked) [Example 130, 6-[2-fluoro-6-(5-methyl-2-pyrimidin-2-yl-7,8-dihydro-5H-pyrido[4,3-d]pyrimidin-6-yl)-4-pyridyl]-2-oxa-6-azaspiro[3.3]heptane]  12 nM
26. CC1c2cnc(-c3ncccn3)nc2CCN1c1cc(F)nc(N2CCN(S(C)(=O)=O)CC2)c1 (centres unmarked) [Example 107, 6-[2-Fluoro-6-(4-methylsulfonylpiperazin-1-yl)-4-pyridyl]-5-methyl-2-pyrimidin-2-yl-7,8-dihydro-5H-pyrido[4,3-d]pyrimidine]  10 nM
27. CC1CN(c2cc(F)cc(N3CCc4nc(-c5ncccn5)ncc4C3C)n2)CC(=O)N1 (centres unmarked) [Example 133, 4-[4-fluoro-6-(5-methyl-2-pyrimidin-2-yl-7,8-dihydro-5H-pyrido[4,3-d]pyrimidin-6-yl)-2-pyridyl]-6-methyl-piperazin-2-one]  9 nM
28. CC1c2cnc(-c3ncccn3)nc2CCN1c1cc(N2CCC2)cc(F)n1 (centres unmarked) [Example 110, 6-[4-(azetidin-1-yl)-6-fluoro-2-pyridyl]-5-methyl-2-pyrimidin-2-yl-7,8-dihydro-5H-pyrido[4,3-d]pyrimidine]  8 nM
29. CC1c2cnc(-c3ncccn3)nc2CCN1c1cc(N2CC(C)(C)OC2=O)cc(F)n1 (centres unmarked) [Example 114, 3-[2-Fluoro-6-(5-methyl-2-pyrimidin-2-yl-7,8-dihydro-5H-pyrido[4,3-d]pyrimidin-6-yl)-4-pyridyl]-5,5-dimethyl-oxazolidin-2-one]  8 nM
30. CC1c2cnc(-c3ncccn3)nc2CCN1c1cc(N2CC(CO)C2)cc(F)n1 (centres unmarked) [Example 135, [1-[2-fluoro-6-(5-methyl-2-pyrimidin-2-yl-7,8-dihydro-5H-pyrido[4,3-d]pyrimidin-6-yl)-4-pyridyl]azetidin-3-yl]methanol]  8 nM
31. CC1c2cnc(-c3ncccn3)nc2CCN1c1cc(N2CCN(S(C)(=O)=O)C(C)C2)cc(F)n1 (centres unmarked) [Example 106, 6-[6-fluoro-4-(3-methyl-4-methylsulfonyl-piperazin-1-yl)-2-pyridyl]-5-methyl-2-pyrimidin-2-yl-7,8-dihydro-5H-pyrido[4,3-d]pyrimidine]  7 nM
32. CC1c2cnc(-c3ncccn3)nc2CCN1c1cc(N2CCCC2=O)cc(F)n1 (centres unmarked) [Example 113, 1-[2-Fluoro-6-(5-methyl-2-pyrimidin-2-yl-7,8-dihydro-5H-pyrido[4,3-d]pyrimidin-6-yl)-4-pyridyl]pyrrolidin-2-one]  4 nM
